The text below walks through data of US20120225862A1, “HETEROARYL BENZAMIDES, COMPOSITIONS AND METHODS OF USE” (AUCKLAND UNIVSERVICES LIMITED, priority 2009, published 2012).

Some results are limits rather than exact numbers.

The subject of assay [1] is RCC4/VHL cell clones overexpressing HIF-2α. The experiment in a line: Sensitivity of RCC4/VHL clones overexpressing HIF. Conditions: two HIF-overexpressing RCC4/VHL clones, FIG. 2G. Type of assay: cell-based, human. The method, then: As the hypoxia-inducible factor family of transcription factors are the best-characterized VHL targets, we next examined whether toxicity was HIF-dependent. A non-degradable, constitutively active HIF was overexpressed in RCC4/VHL cells. Two individual HIF-overexpressing clones were tested for their sensitivity to compound 47. […] Furthermore, the sensitivity of RCCs that lack functional VHL to compound 47 is directly linked to the aberrant upregulation of HIF.

For another assay, the target named is T1, TrkA (Homo sapiens, UniProt P04629).
T1 construct: purchased Millipore (KinaseProfiler service)
The experiment in a line: In vitro kinase activity (Millipore KinaseProfiler): TrkA. The class given is biochemical. Particulars: no head or unit printed. The method, then: (§1) All cells were grown in DMEM+10% FCS. ACHN and ACHN shVHL were a kind gift from George V. Thomas (UCLA). HIF overexpressing clones were described previously. Transfection of RNA oligos were performed with DnarmaFECT Reagent 1 (Dharmcon), according to manufacturer's directions. ON-TARGETplus SMART pools against HIF-1β/ARNT were purchased from Dharmacon. Glut1 was detected with anti-GLUT1 antibody from NeoMarkers/LabVision/Fisher. Pyruvate/lactate levels and hexokinase activity were both measured by fluorometric assay (BioVision and Sigma-Aldrich, respectively). ATP levels were measured by bioluminescence assay (ATP Determination Kit from Molecular Probes/Invitrogen). In vitro kinase activities were performed by Millipore KinaseProfiler. Affi-Gel 10 (BioRad) activated affinity media was coupled to analogs to generate immobilized affinity linkers.
(§2) We next wanted to investigate the differential glucose uptake between RCCs with and without VHL treated with compound 47 that subsequently lead to the selective death of VHL-deficient cells. We first examined the message levels of the two main glucose transporters, GLUT1 and GLUT2 by quantitative real-time PCR. GLUT1 is an inducible, high-affinity glucose transporter, while GLUT2 is the glucose transporter responsible for basal glucose uptake. […] Cells deficient in VHL had very low levels of GLUT2 that could barely be detected (FIG. 3J). […]

For the next assay, the target named is T2, CHK1 (Homo sapiens, UniProt O14757).
T2 construct: purchased Millipore (KinaseProfiler service)
The assay is described as follows: In vitro kinase activity (Millipore KinaseProfiler): CHK1. The class given is biochemical. Particulars: no head or unit printed. The method, then:
as §1, §2

The test system of assay [2] is RCC4. The assay is described as follows: XTT IC50 / viability assay, RCC4 cells. Type of assay: cell-based, human. The essentials:
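RCC4 parental and VHL-reintroduced RCC4/VHL cells (DMEM, 10% FCS) treated with serially diluted drug for four days. Viability by XTT (0.3 mg/mL) with N-methyl dibenzopyrazine methyl sulfate, 1–2 h at 37 °C, absorbance 450 nm; IC50 by linear interpolation.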
A general note: Tetrazolium assays rely on reduction of a dye to a coloured formazan, in cell work by metabolically active cells.

A further assay deals with T3, MKK4 (Mus musculus, UniProt P47809).
T3 construct: purchased Millipore (KinaseProfiler service)
The experiment in a line: In vitro kinase activity (Millipore KinaseProfiler): MKK4. The class given is biochemical. Conditions: no head or unit printed. The method, then: as §1, §2

In assay [3] the test system is RCC4. The experiment in a line: ATP levels (bioluminescence), VHL-deficient cells. The class given is cell-based, human. The method, then: as §1
We next investigated how a decrease in glycolysis could lead to selective necrotic cell death. One possibility is that the reduction in glycolysis lowers the availability of pyruvate, the essential precursor for the generation of acetyl-CoA. […] We therefore examined oxygen consumption as a marker of oxidative phosphorylation and ATP production in treated and untreated cells. […] However, the decrease in glucose uptake in response to treatment with compound 47 in VHL-deficient cells results in a 75% decrease in ATP levels (FIG. 3G). […]

The next assay concerns the target T4, IKKα (Homo sapiens, UniProt O15111).
T4 construct: purchased Millipore (KinaseProfiler service)
The experiment in a line: In vitro kinase activity (Millipore KinaseProfiler): IKKα. The class given is biochemical. Conditions: no head or unit printed. The method, then: as §1, §2

T4 sequence (O15111 whole entry, species assumed): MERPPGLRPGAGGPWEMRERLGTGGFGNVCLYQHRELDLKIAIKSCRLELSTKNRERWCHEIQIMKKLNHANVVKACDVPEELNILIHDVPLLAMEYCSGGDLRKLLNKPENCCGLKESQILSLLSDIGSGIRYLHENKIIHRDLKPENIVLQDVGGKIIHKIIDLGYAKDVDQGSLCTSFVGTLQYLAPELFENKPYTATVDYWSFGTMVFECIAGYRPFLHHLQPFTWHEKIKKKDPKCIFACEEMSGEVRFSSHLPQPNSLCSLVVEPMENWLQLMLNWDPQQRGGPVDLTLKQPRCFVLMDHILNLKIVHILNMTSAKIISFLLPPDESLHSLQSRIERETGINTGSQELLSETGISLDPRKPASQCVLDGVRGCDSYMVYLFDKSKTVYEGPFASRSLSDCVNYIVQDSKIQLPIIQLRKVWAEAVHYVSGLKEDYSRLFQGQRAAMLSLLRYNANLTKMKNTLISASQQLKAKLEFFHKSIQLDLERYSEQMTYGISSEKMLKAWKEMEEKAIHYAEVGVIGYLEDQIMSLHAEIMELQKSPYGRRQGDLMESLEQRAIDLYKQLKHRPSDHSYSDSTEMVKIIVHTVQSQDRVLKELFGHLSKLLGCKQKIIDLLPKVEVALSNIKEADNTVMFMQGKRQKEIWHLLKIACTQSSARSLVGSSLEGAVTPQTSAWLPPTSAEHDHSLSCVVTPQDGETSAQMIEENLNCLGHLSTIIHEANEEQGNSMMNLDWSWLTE
T2 sequence (O14757 whole entry, species assumed): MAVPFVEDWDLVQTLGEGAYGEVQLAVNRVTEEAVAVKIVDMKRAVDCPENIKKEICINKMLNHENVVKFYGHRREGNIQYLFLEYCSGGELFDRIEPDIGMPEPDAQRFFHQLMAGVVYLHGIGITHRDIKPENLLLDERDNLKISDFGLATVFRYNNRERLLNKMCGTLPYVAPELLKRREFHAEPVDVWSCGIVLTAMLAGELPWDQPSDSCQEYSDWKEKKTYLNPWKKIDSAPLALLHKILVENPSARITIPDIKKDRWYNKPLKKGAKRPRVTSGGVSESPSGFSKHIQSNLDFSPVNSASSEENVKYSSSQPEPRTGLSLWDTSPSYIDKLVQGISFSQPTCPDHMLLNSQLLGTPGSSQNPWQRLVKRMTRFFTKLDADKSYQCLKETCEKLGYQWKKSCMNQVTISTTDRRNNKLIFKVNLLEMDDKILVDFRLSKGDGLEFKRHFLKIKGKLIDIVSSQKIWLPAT
T3 sequence (P47809 2-397 limits assumed): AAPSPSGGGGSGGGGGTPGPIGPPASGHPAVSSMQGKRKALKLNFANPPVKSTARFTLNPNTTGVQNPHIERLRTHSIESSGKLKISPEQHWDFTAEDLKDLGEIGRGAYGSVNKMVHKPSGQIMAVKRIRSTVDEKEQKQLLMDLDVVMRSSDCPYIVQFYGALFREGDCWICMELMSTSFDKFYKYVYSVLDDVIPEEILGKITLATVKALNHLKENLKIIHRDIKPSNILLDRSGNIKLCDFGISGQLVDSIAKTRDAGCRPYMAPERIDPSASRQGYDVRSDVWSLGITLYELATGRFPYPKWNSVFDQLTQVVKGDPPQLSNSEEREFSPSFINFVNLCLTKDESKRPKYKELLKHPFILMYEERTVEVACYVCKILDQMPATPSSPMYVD
T1 sequence (P04629 33-796): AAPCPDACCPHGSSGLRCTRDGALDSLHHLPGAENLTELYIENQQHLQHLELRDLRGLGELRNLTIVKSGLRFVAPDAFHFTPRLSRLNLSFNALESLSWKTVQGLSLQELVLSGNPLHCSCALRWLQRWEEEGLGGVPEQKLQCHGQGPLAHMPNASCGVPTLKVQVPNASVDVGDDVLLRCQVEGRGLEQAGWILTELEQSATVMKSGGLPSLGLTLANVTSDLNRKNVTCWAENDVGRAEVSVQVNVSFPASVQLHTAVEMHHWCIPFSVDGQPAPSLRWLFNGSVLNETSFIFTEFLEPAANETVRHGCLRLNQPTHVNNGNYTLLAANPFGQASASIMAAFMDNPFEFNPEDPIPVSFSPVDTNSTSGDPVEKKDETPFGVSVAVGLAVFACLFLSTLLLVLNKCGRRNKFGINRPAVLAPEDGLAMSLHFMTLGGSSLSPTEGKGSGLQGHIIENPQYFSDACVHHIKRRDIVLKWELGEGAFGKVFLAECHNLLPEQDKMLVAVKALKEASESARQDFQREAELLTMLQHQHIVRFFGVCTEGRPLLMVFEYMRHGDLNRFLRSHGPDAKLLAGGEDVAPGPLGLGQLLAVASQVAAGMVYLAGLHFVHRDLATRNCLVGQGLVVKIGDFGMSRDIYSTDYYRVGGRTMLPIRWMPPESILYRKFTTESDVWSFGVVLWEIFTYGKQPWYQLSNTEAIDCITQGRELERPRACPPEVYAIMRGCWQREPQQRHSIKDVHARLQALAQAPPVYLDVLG

Regarding `CC(C)(C)c1ccc(S(=O)(=O)NCc2ccc(C(=O)Nc3cccnc3)cc2)cc1` [Example 38, 4-((4-tert-Butylphenylsulfonamido)methyl)-N-(pyridin-3-yl)benzamide], the “effect of ectopic HIF expression in wild-type VHL cells on sensitivity” value in assay [1] is recorded as “sensitized these cells”. Moreover, at TrkA, the TrkA kinase activity was found to be 124. At CHK1, the CHK1 kinase activity worked out at 114. Moreover, in the assay on RCC4 [2] (Homo sapiens, RCC4, 96 h, XTT assay, four days), the IC50 is < 1000 nM. In the assay on RCC4 [2] (four days of treatment, concentration-dependent, FIG. 2A), the “number of RCC4 cells compared to RCC4/VHL (XTT metabolic activity)” value is given as “significant decrease in the number of RCC4 cells”. The compound also gave an MKK4 kinase activity on MKK4 of 128. For the same compound, the “decrease in ATP levels in VHL-deficient cells” value with RCC4 [3] (5 μM, FIG. 3G) came out at 75%. For the same compound, the “concentration dependence of inhibition of ATP production” value in the assay on RCC4 [3] (FIG. 3H) was “dose-dependent”. The IKKα kinase activity at IKKα is listed as 102.

As a reminder, the IC50 is the concentration needed to halve the response being measured. A lower IC50 goes with greater potency.
